ChEMBL document CHEMBL1157520, “Abietane diterpenoids from the bark of Cryptomeria fortunei” (2008)

Experiments:
Assay type in all cases: functional
HL-60 [1] = assay: Antitumor activity against human HL60 cells at 10^-6 mol/l by MTT assay
HL-60 [2] = assay: Antitumor activity against human HL60 cells at 10^-5 mol/l by MTT assay
HL-60 [3] = assay: Antitumor activity against human HL60 cells at 10^-8 mol/l by MTT assay
HL-60 [4] = assay: Antitumor activity against human HL60 cells at 10^-4 mol/l by MTT assay
HL-60 [5] = assay: Antitumor activity against human HL60 cells at 10^-7 mol/l by MTT assay
A549 [6] = assay: Antitumor activity against human A549 cells at 10^-8 mol/l by SRB assay
A549 [7] = assay: Antitumor activity against human A549 cells at 10^-5 mol/l by SRB assay
A549 [8] = assay: Antitumor activity against human A549 cells at 10^-6 mol/l by SRB assay
A549 [9] = assay: Antitumor activity against human A549 cells at 10^-4 mol/l by SRB assay
A549 [10] = assay: Antitumor activity against human A549 cells at 10^-7 mol/l by SRB assay

Molecule CC(C)c1cc2c(cc1O)[C@@]1(C)CCCC(C)(C)C1=C(O)C2=O has an Activity (HL-60 [1]) of 11.9%, an Activity (HL-60 [2]) of 54.4% and an Activity (HL-60 [3]) of 8.3%. The Activity (HL-60 [4]) was 55.4% and the Activity (HL-60 [5]) was 11.9%.
CC(C)c1cc2c(c(O)c1O)[C@@]1(C)CCCC(C)(C)C1=C(O)C2=O [14-DEOXYCOLEON U] gave an Activity (A549 [6]) of 8.4%, an Activity (A549 [7]) of 53.6% and an Activity (HL-60 [1]) of 11.5%. The Activity (HL-60 [2]) was 53.6%, the Activity (A549 [8]) was 11.5% and the Activity (HL-60 [3]) was 8.4%. For the same molecule, the Activity (A549 [9]) was 50.6%, the Activity (HL-60 [4]) was 50.6% and the Activity (HL-60 [5]) was 13.9%. For the same molecule, the Activity (A549 [10]) was 13.9%.
COc1c(C(C)C)cc2c(c1O)[C@@]1(C)CCCC(C)(C)[C@@H]1[C@@H](O)[C@@H]2OC [FORTUNIN C] gave an Activity (HL-60 [1]) of 14.4%, an Activity (HL-60 [2]) of 56.2% and an Activity (HL-60 [3]) of 9.3%. It also gave an Activity (HL-60 [4]) of 58.5% and an Activity (HL-60 [5]) of 10.8%.
